Starred links: 1 amine or outer side, 2 acyl side, 3 side chain; linkers in the order of their positions; H or OH if unused. Positions of bridges follow the written chain, without caps; N, C: chain ends. Non-standard residues stand in square brackets, D forms with d. Residues, ends and D or L forms follow the SMILES beside them. Chains are numbered I, II in the order given. Actinocin(9to1) = Cc1c2oc3c(C)ccc(C(=O)[*:1])c3nc-2c(C(=O)[*:2])c(N)c1=O; NMeV = CN[C@H](C(=O)O)C(C)C; Sar = CNCC(=O)O
Experiment: in vitro
Type: cell-based
Conditions: human

In the case of Cc1c2oc3c(C)ccc(C(=O)N[C@@H]4C(=O)N[C@H](C(C)C)C(=O)N5CCC[C@H]5C(=O)N(C)CC(=O)N(C)[C@@H](C(C)C)C(=O)O[C@@H]4C)c3nc-2c(C(=O)N[C@@H]2C(=O)N[C@H](C(C)C)C(=O)N3CCC[C@H]3C(=O)N(C)CC(=O)N(C)[C@@H](C(C)C)C(=O)O[C@@H]2C)c(N)c1=O [dactinomycin] (I: T[dV]P[Sar][NMeV] / II: T[dV]P[Sar][NMeV]; ester I:1-I:C, II:1-II:C; linker I:N-II:N via Actinocin(9to1)), the IC50 is reported as 8.5 nM.

— publication PMC9012168 (BioProcess international, 2018)
